The source of these data is patent US6415046B1, “Method and apparatus for the early detection of tissue pathology using wavelet transformation” (priority 1999, dated 2002).

The test system of series [1] is Male Sprague-Dawley SPF rats. The following applies: 10-week rats. Here is the method: In Experiment 2 (10-week), cardiac and renal tissues were harvested, rinsed in ice-cold physiologic saline, and then placed in 10% (v/v) formaldehyde solution in aqueous phosphate buffer (pH 7.4) (Mallinckrodt Inc., St. Louis, Mo.). Pancreatic tissue was harvested and fixed in buffered zinc-formaldehyde. Microscopic analysis were performed on H&E stained tissue slices.
Tissues from 10-week rats were analyzed using H&E staining. […] The degree of infiltration was evaluated qualitatively as none, few (1-4 cells per field), or marked infiltration.

Series [2] concerns Male Sprague-Dawley SPF rats. The following applies: mean±SEM.
Experimental: Two groups of laboratory rats were used to perform two separate experiments (Experiments 1 and 2). Male Sprague-Dawley SPF rats (Charles River Laboratories, Wilmington, Ma.) weighing between 175-200 grams were used for each study. Rats were housed two per cage in a controlled-temperature (20-22° Celsius) room where they were exposed to a 12-hour light/dark cycle. Both groups of animals received food and either water or ethanol ad lib. Body weights were recorded on a weekly basis and fluid consumption was monitored in all groups for the duration of the study. The study was approved by the Louisiana State University Medical Center Institutional Animal Care and Use Committee.
(§1) Rats in the diabetic group were injected with streptozotocin (45 mg/kg) prepared in a 0.02 M sodium citrate solution (pH 4.5) via a tail vein to induce diabetes mellitus. Rats assigned to all other groups were injected with a similar volume of sodium citrate solution. Glycosylated hemoglobin (total) was measured in tail-vein blood in all rats within two days of echocardiographic examination using a commercially available kit (Sigma Chemical Co, St. Louis, Mo.).
(§2) Twenty-five rats were used in this experiment with five animals in each group.
All animals were anesthetized with a solution of ketamine-xylazine (50-mg/kg ketamine, 4-mg/kg xylazine, intraperitoneal) and the thoracic and upper abdominal areas shaved prior to echocardiography. The rats were positioned on a table for M-mode and two-dimensional echocardiograms. Studies were performed with a Toshiba Model 380 Echocardiography instrument (Toshiba America Medical Systems, Tustin, Calif.) using a 10 MHZ transducer calibrated with phantoms prior to use. Lateral resolution less than 0.20 mm within the ROI is achieved at the imaging depths used.
For series [3] the following is noted: mean±SEM; for Body weights at the time of echocardiographic examination: Experiment 1; for Body weights: Experiment 2, 10-weeks.
Experimental: Two groups of laboratory rats were used to perform two separate experiments (Experiments 1 and 2). Male Sprague-Dawley SPF rats (Charles River Laboratories, Wilmington, Ma.) weighing between 175-200 grams were used for each study. Rats were housed two per cage in a controlled-temperature (20-22° Celsius) room where they were exposed to a 12-hour light/dark cycle. Both groups of animals received food and either water or ethanol ad lib. Body weights were recorded on a weekly basis and fluid consumption was monitored in all groups for the duration of the study.
as §1, §2
[4] abbreviates: DE4 group (diabetic, 4% ethanol).
[5] abbreviates: Experiment 1 (5 Wks), diabetic rats, 4% ethanol.
Setting [6] is: Experiment 1 (5 Wks), non-diabetic rats, 12% ethanol.
Where [7] appears, read: Experiment 2 (10 Wks), diabetic rats, 4% ethanol.
The mark [8] stands for this setting: Experiment 2 (10 Wks), non-diabetic rats, 4% ethanol.
The mark [9] stands for this setting: Experiment 2 (10 Wks), non-diabetic rats, 12% ethanol.
Where [10] appears, read: E12 group (non-diabetic, 12% ethanol).

The structures appear in SMILES notation. Read-outs that look alike come from different tables or passages of the source. Marks after values point to notes of the source that are not given here.

For `CCO` [Ethanol, ethanol], the “Rats with clear cells, indicative of glycogen deposition, in the kidney” value in series [1] (setting [4]) was found to be 60%. Also, the “Lymphocytic infiltrates in myocardial IVS on histologic examination” value is on record as “did not show infiltrates” in series [1] (DE group (diabetic, 4% ethanol)); “marked lymphocytic infiltrates” in series [1] (E4 group, all animals, graded none, few (1-4 cells per field), marked); “marked lymphocytic infiltrates” in series [1] (E12 group, all animals, graded none, few (1-4 cells per field), marked). For the same compound, the IVSD in series [2] (setting [5]) is listed as 0.120 ± 0.004 cm; in series [2] (setting [6]), 0.130 ± 0.007 cm; in series [2] (setting [7]) it was 0.105 ± 0.005 cm; in series [2] (setting [8]), 0.126 ± 0.01^a cm; in series [2] (setting [9]), 0.151 ± 0.004^b cm. The LVD in series [2] (setting [5]) is given as 0.455 ± 0.027 cm; in series [2] (setting [6]), 0.540 ± 0.027 cm; in series [2] (setting [7]) it was 0.618 ± 0.032 cm; in series [2] (setting [8]) it was 0.533 ± 0.033 cm; in series [2] (setting [9]), 0.593 ± 0.018 cm. Besides, the PWD in series [2] (setting [5]) is listed as 0.143 ± 0.005 cm; in series [2] (setting [6]), 0.150 ± 0.003 cm; in series [2] (setting [7]), 0.125 ± 0.004^d cm; in series [2] (setting [8]), 0.155 ± 0.005^c cm; in series [2] (setting [9]) it was 0.159 ± 0.002^c cm. For the same compound, the “Body weights at the time of echocardiographic examination” value in series [3] (setting [4]) is 292±22 grams (g); in series [3] (setting [10]) it was 301±11 grams (g). Besides, the Body weights in series [3] (setting [4]) stood at 295 ± 16 g; in series [3] (E4 group (non-diabetic, 4% ethanol)) it was 598 ± 29 g; in series [3] (setting [10]), 581 ± 25 g.
